Experiments:
[1] = Rumen protected niacin, effect upon milk production; format: in vivo, Holstein cows; details: 12 g top-dressed on TMR twice daily (N12 / BN12)
Description: Six multiparous rumen-cannulated Holstein cows (BW=656 kg) after peak lactation (128±23 days in milk) were assigned to 1 of 6 treatments in a completely randomized 6×6 Latin Square with an extra period to measure carry-over effects. Periods consisted of a 7-day (d 1-7) adaptation period followed by a 7-day (d 8-14) measurement period. Cows were fed according to NRC (2001) recommendations to meet or exceed requirements. Treatments were: CON (no niacin), INF (abomassal infusion of 12 g unprotected niacin (UN)), N12 (12 g UN), BN3 (3 g PN), BN6 (6 g PN), and BN12 (12 g PN). Treatments N12, BN3, BN6, and BN 12 were top-dressed on the Total Mixed Ration (TMR) twice daily. The daily dose of treatment INF was divided in 5 equal portions and infused during the day every 4 hours. Cows receiving treatments other than INF were infused with the same volume of water at the same time.

[2] = Rumen protected niacin, response to epinephrine (Epi) challenge; format: in vivo, Holstein cows
Description: Niacin may modulate lipolytic responses in adipose tissue but is highly degradable in the rumen so that oral administration leads to unknown quantities absorbed. We determined responses to epinephrine (Epi) challenge as affected by three levels of protected niacin (PN) or unprotected niacin (UN) in the diet or infused abomasally.
Six multiparous rumen-cannulated Holstein cows (BW=656 kg; 128±23 days in milk) were used in a completely randomized 6×6 Latin Square with an extra period to quantify carryover effects. Periods consisted of 7 days for adaptation followed by 7 days for measurements. Cows were fed according to NRC (2001) recommendations. Treatments were: CON (no niacin), INF (abomassal infusion of 12 g UN), N12 (12 g UN), BN3 (3 g PN), BN6 (6 g PN), and BN12 (12 g PN). Treatments N12, BN3, BN6, and BN12 were top-dressed on the Total Mixed Ration (TMR) twice daily. Treatment INF was divided in 5 equal portions and infused every 4 hours. Cows receiving treatments other than INF were infused with the same volume of water at the same times.
On day 12, cows received an i.v, infusion of Epi (1.4 μg/kg BW). […] Total area under the curve (AUC) responses of nonesterified Fatty Acids (NEFA) and glucose concentrations in plasma were calculated using the trapezoidal rule.

Compound: O=C(O)c1cccnc1 [UN, niacin]
- dry matter intake (DMI) [1]: 24.3 ± 1 kg
- milk fat/protein ratio (F/P) ([1]; P=0.03): 1.15±0.09
- Feed efficiency (FE=energy-corrected milk/DMI) ([1]; P=0.04): 1.5±0.1
- Milk yield ([1]; P=0.06): 37.1 ± 2.3 kg
- Time to peak NEFA concentration ([2]; 12 g top-dressed on TMR twice daily (N12 / BN12), i.v. Epi 1.4 μg/kg BW on day 12, plasma): 22.1 ± 3.2 min
- glucose AUC ([2]; abomasal infusion of 12 g (INF) compared with N12, Epi challenge, P=0.04): greater AUC than N12
